Assays:
[1] = test system: mGluRs 1, 2, 3, 4, 7 and 8; test: Selectivity versus other mGluRs
[2] = molecular target: MPEP allosteric binding site on mGluR5 (Rattus norvegicus, UniProt P31424); test: Displacement of [3H]3-methoxy-5-
MPEP allosteric binding site on mGluR5, sequence (P31424 21-1203): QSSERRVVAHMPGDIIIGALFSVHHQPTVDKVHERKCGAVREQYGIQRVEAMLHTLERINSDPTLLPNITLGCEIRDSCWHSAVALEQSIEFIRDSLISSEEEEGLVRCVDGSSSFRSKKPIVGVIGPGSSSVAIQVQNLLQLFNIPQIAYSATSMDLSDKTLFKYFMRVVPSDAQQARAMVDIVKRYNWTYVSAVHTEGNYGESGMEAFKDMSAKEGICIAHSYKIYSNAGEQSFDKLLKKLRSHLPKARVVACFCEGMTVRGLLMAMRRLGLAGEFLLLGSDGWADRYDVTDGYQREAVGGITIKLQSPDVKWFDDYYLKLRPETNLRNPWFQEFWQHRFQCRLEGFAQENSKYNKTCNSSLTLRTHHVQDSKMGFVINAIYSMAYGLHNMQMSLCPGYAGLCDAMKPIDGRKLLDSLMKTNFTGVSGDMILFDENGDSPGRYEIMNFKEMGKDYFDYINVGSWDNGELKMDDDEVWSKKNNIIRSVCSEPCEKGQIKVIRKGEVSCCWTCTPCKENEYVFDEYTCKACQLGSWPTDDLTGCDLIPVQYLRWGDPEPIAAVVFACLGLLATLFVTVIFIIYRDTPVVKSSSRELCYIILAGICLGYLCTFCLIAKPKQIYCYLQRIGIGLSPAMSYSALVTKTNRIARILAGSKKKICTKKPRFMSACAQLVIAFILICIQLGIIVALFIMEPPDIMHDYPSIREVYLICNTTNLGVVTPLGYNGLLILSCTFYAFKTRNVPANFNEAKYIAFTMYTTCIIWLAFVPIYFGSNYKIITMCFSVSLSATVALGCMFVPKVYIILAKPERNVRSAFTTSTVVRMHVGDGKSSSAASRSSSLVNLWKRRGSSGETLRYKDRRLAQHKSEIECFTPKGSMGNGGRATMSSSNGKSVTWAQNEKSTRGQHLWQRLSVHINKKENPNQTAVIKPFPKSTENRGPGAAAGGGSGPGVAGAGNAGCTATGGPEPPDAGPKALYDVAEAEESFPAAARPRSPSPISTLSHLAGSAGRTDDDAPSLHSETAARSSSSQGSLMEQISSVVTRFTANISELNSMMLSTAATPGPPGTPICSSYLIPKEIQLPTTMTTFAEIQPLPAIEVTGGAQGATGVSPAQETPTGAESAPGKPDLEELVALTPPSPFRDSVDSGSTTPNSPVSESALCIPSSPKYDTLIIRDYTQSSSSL

Structure (SMILES) | selectivity versus mGluRs 1, 2, 3, 4, 7 and 8 [1] | Ki [2] [µM]
COc1ccccc1C(=O)Nc1cccc(NC(=O)c2cccc(Cl)c2)c1 [compound 8] | selective | 1.1
O=C(Nc1ccccc1O)c1cccc(N2C(=O)c3ccccc3C2=O)c1 [compound 9, 3-(phthalimidyl)-N-(2-hydroxyphenyl)benzamide] | selective | 0.319

— paper PMC3177597 (Bioorganic & medicinal chemistry letters, 2009)
